Target: ATP-dependent translocase ABCB1 (Homo sapiens, UniProt P08183)
Assay: TP_TRANSPORTER: drug resistance (vincristine) in KBV200 cells
Type: functional, cell-based

ATP-dependent translocase ABCB1, sequence (P08183 whole entry): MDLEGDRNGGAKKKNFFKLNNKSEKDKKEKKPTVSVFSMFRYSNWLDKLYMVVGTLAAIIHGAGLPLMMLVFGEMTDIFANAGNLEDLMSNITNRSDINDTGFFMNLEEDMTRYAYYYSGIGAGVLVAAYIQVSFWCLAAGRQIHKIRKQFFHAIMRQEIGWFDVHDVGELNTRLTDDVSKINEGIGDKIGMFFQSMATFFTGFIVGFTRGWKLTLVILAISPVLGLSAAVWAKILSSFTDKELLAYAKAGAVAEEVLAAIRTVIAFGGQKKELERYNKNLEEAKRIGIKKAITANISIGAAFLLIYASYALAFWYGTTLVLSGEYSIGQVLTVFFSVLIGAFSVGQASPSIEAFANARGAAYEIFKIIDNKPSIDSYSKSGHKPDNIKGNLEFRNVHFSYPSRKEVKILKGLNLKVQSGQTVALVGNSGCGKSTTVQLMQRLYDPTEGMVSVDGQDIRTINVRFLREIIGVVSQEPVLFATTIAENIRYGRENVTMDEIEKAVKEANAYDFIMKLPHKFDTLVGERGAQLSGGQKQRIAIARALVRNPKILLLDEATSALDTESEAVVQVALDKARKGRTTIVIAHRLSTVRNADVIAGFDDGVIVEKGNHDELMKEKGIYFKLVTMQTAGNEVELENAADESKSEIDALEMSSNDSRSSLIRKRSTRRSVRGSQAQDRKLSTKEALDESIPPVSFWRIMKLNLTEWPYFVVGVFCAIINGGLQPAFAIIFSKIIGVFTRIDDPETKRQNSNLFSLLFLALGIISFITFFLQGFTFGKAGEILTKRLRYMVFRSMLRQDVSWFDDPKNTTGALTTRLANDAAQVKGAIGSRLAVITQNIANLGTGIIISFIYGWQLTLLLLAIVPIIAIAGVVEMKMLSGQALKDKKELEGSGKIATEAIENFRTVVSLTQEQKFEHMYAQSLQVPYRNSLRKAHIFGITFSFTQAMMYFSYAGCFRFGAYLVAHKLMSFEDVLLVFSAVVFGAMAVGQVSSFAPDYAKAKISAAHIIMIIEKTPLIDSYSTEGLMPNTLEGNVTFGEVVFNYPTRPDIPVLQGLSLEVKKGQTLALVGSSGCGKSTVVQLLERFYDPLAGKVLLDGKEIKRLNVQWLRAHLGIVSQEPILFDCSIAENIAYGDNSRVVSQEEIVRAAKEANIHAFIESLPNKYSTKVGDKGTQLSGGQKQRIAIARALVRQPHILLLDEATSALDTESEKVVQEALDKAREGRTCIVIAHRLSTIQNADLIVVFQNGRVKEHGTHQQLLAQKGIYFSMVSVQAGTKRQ

COc1ccc2cc1Oc1ccc(cc1)C[C@H]1c3cc(c(OC)cc3CCN1C)Oc1c(OC)c(OC)cc3c1[C@H](C2)N(C)CC3 [FANCHININ]
Activity: inhibitor [+]
